In PubChem BioAssay (NCI):
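All cell lines were grown in 96-well plates and treated with compound for 48 hours. TGI is the concentration that stops growth completely.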

Legend:
Experiment in all cases: inhibition of tumour cell growth, NCI panel, 48 h
M19-MEL melanoma = tested on: M19-MEL melanoma
RXF-631 renal = tested on: RXF-631 renal
NCI-H226 lung = tested on: NCI-H226 lung
SF-295 CNS = tested on: SF-295 CNS
HCT-116 colon = tested on: HCT-116 colon
OVCAR-3 ovarian = tested on: OVCAR-3 ovarian
NCI-H23 lung = tested on: NCI-H23 lung
786-0 renal = tested on: 786-0 renal
A549 NSCLC = tested on: A549 NSCLC
SF-268 CNS = tested on: SF-268 CNS
UO-31 renal = tested on: UO-31 renal
HCC-2998 colon = tested on: HCC-2998 colon
A498 renal = tested on: A498 renal
OVCAR-4 ovarian = tested on: OVCAR-4 ovarian
CCRF-CEM leukemia = tested on: CCRF-CEM leukemia
RXF 393 renal = tested on: RXF 393 renal
OVCAR-5 ovarian = tested on: OVCAR-5 ovarian
MALME-3M melanoma = tested on: MALME-3M melanoma
SNB-19 CNS = tested on: SNB-19 CNS
EKVX NSCLC = tested on: EKVX NSCLC
KM20L2 colon = tested on: KM20L2 colon
SK-MEL-5 melanoma = tested on: SK-MEL-5 melanoma
SK-OV-3 ovarian = tested on: SK-OV-3 ovarian
CAKI-1 renal = tested on: CAKI-1 renal
LXFL 529 NSCLC = tested on: LXFL 529 NSCLC
SK-MEL-28 melanoma = tested on: SK-MEL-28 melanoma
TK-10 renal = tested on: TK-10 renal
SW-620 colon = tested on: SW-620 colon
HT29 colon = tested on: HT29 colon
IGROV1 ovarian = tested on: IGROV1 ovarian
SNB-75 CNS = tested on: SNB-75 CNS
NCI-H522 lung = tested on: NCI-H522 lung
ACHN renal = tested on: ACHN renal
HOP-62 NSCLC = tested on: HOP-62 NSCLC
K-562 leukemia = tested on: K-562 leukemia
LOX IMVI melanoma = tested on: LOX IMVI melanoma
M14 melanoma = tested on: M14 melanoma
HL-60(TB) leukemia = tested on: HL-60(TB) leukemia
HOP-18 NSCLC = tested on: HOP-18 NSCLC
NCI-H460 lung = tested on: NCI-H460 lung
SNB-78 CNS = tested on: SNB-78 CNS
HOP-92 NSCLC = tested on: HOP-92 NSCLC
RPMI-8226 leukemia = tested on: RPMI-8226 leukemia
OVCAR-8 ovarian = tested on: OVCAR-8 ovarian
UACC-257 melanoma = tested on: UACC-257 melanoma
SF-539 CNS = tested on: SF-539 CNS
SR leukemia = tested on: SR leukemia
COLO 205 colon = tested on: COLO 205 colon
HCT-15 colon = tested on: HCT-15 colon
DMS 114 small cell lung = tested on: DMS 114 small cell lung
MOLT-4 leukemia = tested on: MOLT-4 leukemia
SN12C renal = tested on: SN12C renal
DLD-1 colon = tested on: DLD-1 colon
U251 CNS = tested on: U251 CNS
SK-MEL-2 melanoma = tested on: SK-MEL-2 melanoma
XF 498 CNS = tested on: XF 498 CNS
KM12 colon = tested on: KM12 colon
DMS 273 small cell lung = tested on: DMS 273 small cell lung

CC1(C)OC(=O)C(=C2CC(c3ccccc3)c3ccccc32)C(=O)O1 (centres undefined) was tested, and the TGI (M19-MEL melanoma) was > 100 µM, the TGI (RXF-631 renal) was > 100 µM and the TGI (NCI-H226 lung) was > 100 µM. For the same compound, the TGI (SF-295 CNS) was > 100 µM, the TGI (HCT-116 colon) was > 100 µM and the TGI (OVCAR-3 ovarian) was > 100 µM. The TGI (NCI-H23 lung) was > 100 µM, the TGI (786-0 renal) was > 100 µM and the TGI (A549 NSCLC) was > 100 µM. For the same compound, the TGI (SF-268 CNS) was > 100 µM, the TGI (UO-31 renal) was > 100 µM and the TGI (HCC-2998 colon) was > 100 µM. For the same compound, the TGI (A498 renal) was > 100 µM, the TGI (OVCAR-4 ovarian) was > 100 µM and the TGI (CCRF-CEM leukemia) was > 100 µM. For the same compound, the TGI (RXF 393 renal) was > 100 µM, the TGI (OVCAR-5 ovarian) was > 100 µM and the TGI (MALME-3M melanoma) was > 100 µM. The TGI (SNB-19 CNS) was > 100 µM, the TGI (EKVX NSCLC) was > 100 µM and the TGI (KM20L2 colon) was > 100 µM. For the same compound, the TGI (SK-MEL-5 melanoma) was > 100 µM, the TGI (SK-OV-3 ovarian) was > 100 µM and the TGI (CAKI-1 renal) was > 100 µM. The TGI (LXFL 529 NSCLC) was > 100 µM, the TGI (SK-MEL-28 melanoma) was > 100 µM and the TGI (TK-10 renal) was > 100 µM. The TGI (SW-620 colon) was > 100 µM, the TGI (HT29 colon) was > 100 µM and the TGI (IGROV1 ovarian) was > 100 µM. The TGI (SNB-75 CNS) was > 100 µM, the TGI (NCI-H522 lung) was > 100 µM and the TGI (ACHN renal) was > 100 µM. The TGI (HOP-62 NSCLC) was > 100 µM, the TGI (K-562 leukemia) was > 100 µM and the TGI (LOX IMVI melanoma) was > 100 µM. The TGI (M14 melanoma) was > 100 µM, the TGI (HL-60(TB) leukemia) was > 100 µM and the TGI (HOP-18 NSCLC) was > 100 µM. For the same compound, the TGI (NCI-H460 lung) was > 100 µM, the TGI (SNB-78 CNS) was > 100 µM and the TGI (HOP-92 NSCLC) was > 100 µM. For the same compound, the TGI (RPMI-8226 leukemia) was > 100 µM, the TGI (OVCAR-8 ovarian) was > 100 µM and the TGI (UACC-257 melanoma) was > 100 µM. The TGI (SF-539 CNS) was > 100 µM, the TGI (SR leukemia) was > 100 µM and the TGI (COLO 205 colon) was > 100 µM. The TGI (HCT-15 colon) was > 100 µM, the TGI (DMS 114 small cell lung) was > 100 µM and the TGI (MOLT-4 leukemia) was > 100 µM. For the same compound, the TGI (SN12C renal) was > 100 µM, the TGI (DLD-1 colon) was > 100 µM and the TGI (U251 CNS) was > 100 µM.
In the case of O=C(O)C1OC(Oc2cc(O)c3c(=O)cc(-c4ccc(O)cc4)oc3c2)C(O)C(O)C1O (centres undefined), the TGI (SK-MEL-2 melanoma) is reported as > 100 µM, the TGI (M19-MEL melanoma) is reported as > 100 µM and the TGI (NCI-H226 lung) is reported as > 100 µM. For the same compound, the TGI (SF-295 CNS) was > 100 µM, the TGI (HCT-116 colon) was > 100 µM and the TGI (OVCAR-3 ovarian) was > 100 µM. For the same compound, the TGI (NCI-H23 lung) was > 100 µM, the TGI (786-0 renal) was > 100 µM and the TGI (A549 NSCLC) was > 100 µM. For the same compound, the TGI (SF-268 CNS) was > 100 µM, the TGI (UO-31 renal) was > 100 µM and the TGI (HCC-2998 colon) was > 100 µM. The TGI (OVCAR-4 ovarian) was > 100 µM, the TGI (OVCAR-5 ovarian) was > 100 µM and the TGI (MALME-3M melanoma) was > 100 µM. The TGI (SNB-19 CNS) was > 100 µM, the TGI (EKVX NSCLC) was > 100 µM and the TGI (KM20L2 colon) was > 100 µM. For the same compound, the TGI (SK-MEL-5 melanoma) was > 100 µM, the TGI (CAKI-1 renal) was > 100 µM and the TGI (LXFL 529 NSCLC) was > 100 µM. For the same compound, the TGI (SK-MEL-28 melanoma) was > 100 µM, the TGI (TK-10 renal) was > 100 µM and the TGI (XF 498 CNS) was 83 µM. For the same compound, the TGI (SW-620 colon) was > 100 µM, the TGI (HT29 colon) was > 100 µM and the TGI (KM12 colon) was > 100 µM. For the same compound, the TGI (SNB-75 CNS) was > 100 µM, the TGI (NCI-H522 lung) was > 100 µM and the TGI (ACHN renal) was > 100 µM. The TGI (HOP-62 NSCLC) was > 100 µM, the TGI (LOX IMVI melanoma) was > 100 µM and the TGI (M14 melanoma) was > 100 µM. The TGI (HL-60(TB) leukemia) was > 100 µM, the TGI (NCI-H460 lung) was > 100 µM and the TGI (SNB-78 CNS) was > 100 µM. For the same compound, the TGI (DMS 273 small cell lung) was > 100 µM, the TGI (OVCAR-8 ovarian) was > 100 µM and the TGI (UACC-257 melanoma) was > 100 µM. The TGI (SF-539 CNS) was > 100 µM, the TGI (COLO 205 colon) was > 100 µM and the TGI (DMS 114 small cell lung) was > 100 µM. For the same compound, the TGI (SN12C renal) was > 100 µM, the TGI (DLD-1 colon) was > 100 µM and the TGI (U251 CNS) was > 100 µM.
